Measurements from patent publication EP0564397A1, “Antiatherosclerotic substituted phenylquinazoline derivatives” (SANDOZ LTD., priority 1992, dated 1993).

Columns and labels:
Conditions in all cases: duration of treatment 8 days
HDL-cholesterol = assay: Test A: In vivo HDL-cholesterol test
Source text: (§1) a) Test A: In vivo HDL-cholesterol test: The test is effected according to the method described in the literature, e.g. in EP 528 146 Other conventional methods may be used to assay the blood serum samples for HDL-cholesterol and total triglycerides content.

Apo A-I = assay: Test B: Apo A-I test; type: in vivo
Source text: b) Test B: Apo A-I test: The test is effected as described in the literature, e.g. in EP 528 146.

total triglycerides = assay: Test A: In vivo HDL-cholesterol test, blood serum samples assayed for total triglycerides content
Source text: as §1

## Cc1ccc(C)c(OCCCC(C)(C)C(=O)O)c1 [Gemfibrozil]
HDL-cholesterol; average dose 53 mg/kg/day
  HDL-cholesterol level increase (%): 211%
Apo A-I; average dose 53 mg/kg/day
  Apo-I level increase (%): 88%
Total triglycerides; average dose 53 mg/kg/day
  Total triglyceride level decrease (%): 15%

## CC1=CSC2=Nc3ccccc3[C@@H](c3ccccc3)N12 [Example 1, R-isomer (free base), (R)-3-Methyl-5-phenyl-5H-thiazolo[2,3-b]quinazoline]
HDL-cholesterol; average dose 83 mg/kg/day
  HDL-cholesterol level increase (%): 402%
Apo A-I; average dose 83 mg/kg/day
  Apo-I level increase (%): 62%
Total triglycerides; average dose 83 mg/kg/day
  Total triglyceride level decrease (%): 15%
